Assay results from patent US12617779B2, “Self degradation-type CDK9 inhibitor prodrug and liposome encapsulating same” (Sumitomo Pharma Co., Ltd., priority 2021, dated 2026).

Assays:
[1] = Evaluation of conversion rate to active form in human plasma (Experimental Example 3); format: in vitro ADME; settings: 0.2 μmol/L; for Conversion to Alvocidib in human plasma: Examples up to 60 minutes, Comparative Examples up to 120 minutes
In short: (§1)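 Test compound at 0.2 μmol/L was incubated at 37° C in human or BALB/c mouse plasma and sampled at 0, 30 and 60 min or at 0, 60 and 120 min. Compound and Alvocidib were quantified by LC-MS/MS peak area. Attrition is relative to 0 min; conversion is relative to 0.2 μmol/L Alvocidib reference.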

[2] = Evaluation of conversion rate to active form in BALB/c mouse plasma (Experimental Example 3); format: in vitro ADME; settings: 0.2 μmol/L; for Conversion to Alvocidib in BALB/c mouse plasma: Examples up to 60 minutes, Comparative Examples up to 120 minutes
In short: as §1

A673 cells = assay: Drug efficacy evaluation test using tumor-bearing mice transplanted with A673 cells (Experimental Example 8); format: in vivo, BALB/c mice; settings: liposome formulation, tail vein, 50 mg/kg twice a week
Description: The liposome formulation encapsulating the compound of the present disclosure was treated and evaluated for anti-tumor effect and weight loss.
The liposome formulations were prepared as follows. The liposomes encapsulating the compounds of Example 1, Example 2, Example 5 and Example 6 were prepared in the same manner as in Experimental Example 4, respectively. The liposome outer solution was replaced with 10 mM tartrate buffer solution/10% sucrose solution (pH4.0) using a dialysis cassette (Slide-A-Lyzer G2 Dialysis Cassettes 20K MWCO, manufactured by Thermo Scientific), followed by filtration through a 0.22 μm membrane filter.
A673 cells (ATCC) were intradermally transplanted into 5-week-old BALB/c mice (CAnN.Cg-Foxnlnu/CrlCrlj, female, Charles River, Japan) around the ventral region at 3×10^6 cells/mouse. After confirming the engraftment of A673 cells 6 days after transplantation, they were divided into groups based on tumor diameter and body weight, and liposome formulations encapsulating Example 1, Example 2, Example 5 and Example 6 were administered through the tail vein at dose of 50 mg/kg twice a week, respectively. […] The tumor volume was measured over time from the start of administration, and the tumor volume reduction effect due to compound administration was evaluated. The tumor volume was calculated by the following formula using the short and long diameters of the tumor measured with an electronic caliper (Mitutoyo). For comparison in this test, an empty liposome solution prepared in the same manner as in Experimental Example 1 was used.
The anti-tumor effect was evaluated by comparing the control group administered with the empty liposome solution and the administration group of the compound of the present disclosure, and calculating T/C by the following formula.

Compound	Residual rate (%) of test compound ([1]; Human plasma, 37° C., 0 min)	Residual rate (%) of test compound ([1]; Human plasma, 37° C., 30 min)	Residual rate (%) of test compound ([1]; Human plasma, 37° C., 60 min)	Conversion to Alvocidib in human plasma ([1]; 37° C.)	Conversion to Alvocidib in BALB/c mouse plasma ([2]; 37° C.)	Residual rate (%) of test compound ([2]; Mouse plasma, 37° C., 0 min)	Residual rate (%) of test compound ([2]; Mouse plasma, 37° C., 30 min)	Residual rate (%) of test compound ([2]; Mouse plasma, 37° C., 60 min)	Effect on tumor volume (A673 cells)	further results
C[C@H](N)C(=O)O[C@@H]1CN(C)CC[C@@H]1c1c(O)cc(O)c2c(=O)cc(-c3ccccc3Cl)oc12 [Comparative Example 7, reference compound]										Production rate (%) of Alvocidib ([1]; human, 0 min): 6%; Residual rate (%) of test compound ([1]; human, 0 min): 100%; Production rate (%) of Alvocidib ([1]; human, 60 min): 26%; Residual rate (%) of test compound ([1]; human, 60 min): 77%; Production rate (%) of Alvocidib ([1]; human, 120 min): 32%; Residual rate (%) of test compound ([1]; human, 120 min): 65%; Production rate (%) of Alvocidib ([2]; BALB/c, mouse, 0 min): 1%; Residual rate (%) of test compound ([2]; BALB/c, mouse, 0 min): 100%; Production rate (%) of Alvocidib ([2]; BALB/c, mouse, 60 min): 64%; Residual rate (%) of test compound ([2]; BALB/c, mouse, 60 min): 25%; Production rate (%) of Alvocidib ([2]; BALB/c, mouse, 120 min): 79%; Residual rate (%) of test compound ([2]; BALB/c, mouse, 120 min): 10%
CN1CC[C@H](c2c(O)cc(O)c3c(=O)cc(-c4ccccc4Cl)oc23)[C@H](OC(=O)[C@@H](N)CO)C1 [Comparative Example 9, reference compound]										Production rate (%) of Alvocidib ([1]; human, 0 min): 3%; Residual rate (%) of test compound ([1]; human, 0 min): 100%; Production rate (%) of Alvocidib ([1]; human, 60 min): 18%; Residual rate (%) of test compound ([1]; human, 60 min): 85%; Production rate (%) of Alvocidib ([1]; human, 120 min): 25%; Residual rate (%) of test compound ([1]; human, 120 min): 80%; Production rate (%) of Alvocidib ([2]; BALB/c, mouse, 0 min): 3%; Residual rate (%) of test compound ([2]; BALB/c, mouse, 0 min): 100%; Production rate (%) of Alvocidib ([2]; BALB/c, mouse, 60 min): 33%; Residual rate (%) of test compound ([2]; BALB/c, mouse, 60 min): 70%; Production rate (%) of Alvocidib ([2]; BALB/c, mouse, 120 min): 43%; Residual rate (%) of test compound ([2]; BALB/c, mouse, 120 min): 54%
CCN(C[C@@H]1CCCCN1)C(=O)Oc1cc(O)c2c(=O)cc(-c3ccccc3Cl)oc2c1[C@H]1CCN(C)C[C@H]1O [Example 1, 2-(2-chlorophenyl)-5-hydroxy-8-[(3S,4R)-3-hydroxy-1-methylpiperidin-4-yl]-4-oxo-4H-1-benzopyran-7-yl ethyl{[(2S)-piperidin-2-yl]methyl}carbamate ditrifluoroacetate]	100%	6%	0%	proceeded rapidly	proceeded rapidly	100%	24%	3%	significantly inhibited the increase in tumor volume	Weight loss of 10% or more compared to the start of administration (A673 cells): without weight loss
CCN(C[C@H]1CCCCN1)C(=O)Oc1cc(O)c2c(=O)cc(-c3ccccc3Cl)oc2c1[C@H]1CCN(C)C[C@H]1O [Example 2, 2-(2-chlorophenyl)-5-hydroxy-8-[(3S,4R)-3-hydroxy-1-methylpiperidin-4-yl]-4-oxo-4H-1-benzopyran-7-yl ethyl{[(2R)-piperidin-2-yl]methyl}carbamate]	100%	4%	2%	proceeded rapidly	proceeded rapidly	100%	25%	4%	inhibited the increase in tumor volume	Weight loss of 10% or more compared to the start of administration (A673 cells): without weight loss
CN1CC[C@H](c2c(OC(=O)N(C)C[C@@H]3CCCCN3)cc(O)c3c(=O)cc(-c4ccccc4Cl)oc23)[C@H](O)C1 [Example 3, 2-(2-chlorophenyl)-5-hydroxy-8-[(3S,4R)-3-hydroxy-1-methylpiperidin-4-yl]-4-oxo-4H-1-benzopyran-7-yl methyl{[(2S)-piperidin-2-yl]methyl}carbamate]	100%	3%	0%	proceeded rapidly	proceeded rapidly	100%	8%	0%		
CN1CC[C@H](c2c(OC(=O)N(C)C[C@H]3CCCCN3)cc(O)c3c(=O)cc(-c4ccccc4Cl)oc23)[C@H](O)C1 [Example 4, 2-(2-chlorophenyl)-5-hydroxy-8-[(3S,4R)-3-hydroxy-1-methylpiperidin-4-yl]-4-oxo-4H-1-benzopyran-7-yl methyl{[(2R)-piperidin-2-yl]methyl}carbamate]	100%	4%	4%	proceeded rapidly	proceeded rapidly	100%	5%	3%		
CCCN(C[C@@H]1CCCCN1)C(=O)Oc1cc(O)c2c(=O)cc(-c3ccccc3Cl)oc2c1[C@H]1CCN(C)C[C@H]1O [Example 5, 2-(2-chlorophenyl)-5-hydroxy-8-[(3S,4R)-3-hydroxy-1-methylpiperidin-4-yl]-4-oxo-4H-1-benzopyran-7-yl {[(2S)-piperidin-2-yl]methyl}propylcarbamate]	100%	1%	0%	proceeded rapidly	proceeded rapidly	100%	36%	8%	inhibited the increase in tumor volume	
CCCN(C[C@H]1CCCCN1)C(=O)Oc1cc(O)c2c(=O)cc(-c3ccccc3Cl)oc2c1[C@H]1CCN(C)C[C@H]1O [Example 6, 2-(2-chlorophenyl)-5-hydroxy-8-[(3S,4R)-3-hydroxy-1-methylpiperidin-4-yl]-4-oxo-4H-1-benzopyran-7-yl {[(2R)-piperidin-2-yl]methyl}propylcarbamate]	100%	3%	2%	proceeded rapidly	proceeded rapidly	100%	26%	2%	inhibited the increase in tumor volume	
